Data published in patent US20200247800A1, “SUBSTITUTED BICYCLIC HETEROCYCLIC COMPOUNDS AS NADPH OXIDASE INHIBITORS” (Glenmark Pharmaceuticals S.A., priority 2017, published 2020).
Where a name gives a salt, the structure may show the parent alone.

Molecular target: T1, human NOX4 (Homo sapiens, UniProt Q9NPH5)
T1 construct: expressed in transfected cells; membrane fraction used
T1 sequence (Q9NPH5 1-578): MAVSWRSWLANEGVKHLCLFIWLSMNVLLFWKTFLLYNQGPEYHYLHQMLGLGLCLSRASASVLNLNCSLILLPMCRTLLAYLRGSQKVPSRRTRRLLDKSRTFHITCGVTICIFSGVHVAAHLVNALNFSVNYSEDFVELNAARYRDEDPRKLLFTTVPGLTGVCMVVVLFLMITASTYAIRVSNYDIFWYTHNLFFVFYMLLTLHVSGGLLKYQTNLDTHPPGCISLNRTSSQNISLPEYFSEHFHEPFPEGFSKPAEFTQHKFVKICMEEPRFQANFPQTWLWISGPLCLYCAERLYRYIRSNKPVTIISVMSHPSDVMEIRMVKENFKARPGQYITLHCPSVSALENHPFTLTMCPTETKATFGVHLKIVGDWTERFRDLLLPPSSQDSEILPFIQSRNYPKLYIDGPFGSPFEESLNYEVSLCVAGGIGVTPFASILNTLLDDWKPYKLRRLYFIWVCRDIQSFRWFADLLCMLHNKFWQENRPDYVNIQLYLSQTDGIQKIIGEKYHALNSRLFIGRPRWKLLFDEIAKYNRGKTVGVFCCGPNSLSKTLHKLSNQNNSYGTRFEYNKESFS
T1 sequence (P13498 1-195 partner): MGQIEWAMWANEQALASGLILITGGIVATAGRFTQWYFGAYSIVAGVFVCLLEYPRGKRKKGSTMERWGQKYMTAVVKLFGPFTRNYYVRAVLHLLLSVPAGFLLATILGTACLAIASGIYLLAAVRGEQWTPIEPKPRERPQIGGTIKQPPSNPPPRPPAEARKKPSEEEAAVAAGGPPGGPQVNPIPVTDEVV
Assay: Cell free membrane based in vitro NOX4 assay: H2O2 production by membranes expressing human NOX4, measured with Amplex Red
Assay type: biochemical
Settings: for inhibition at 1 µM / Percentage inhibition at 1.0 μM: 1.0 μM compound; for inhibition at 1 µM: read-out: Percentage inhibition at 1.0 μM; for inhibition at 10 µM / Percentage inhibition at 10.0 μM: 10.0 μM compound; for inhibition at 10 µM: read-out: Percentage inhibition at 10.0 μM; for IC50: class symbols
Outline: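 Membranes from HEK cells stably overexpressing human NOX4 were preincubated 20 min with inhibitor in pH 7.4 HEPES buffer containing HRP and Amplex Red, then NADPH was added. H2O2 was followed for 10 min by fluorescence (ex 544/em 590 nm). IC50 from nonlinear regression of % maximal uninhibited response.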

Row | Structure (SMILES) | inhibition at 1 µM [%] | inhibition at 10 µM [%] | IC50 [nM] | further results
1 | CC(C)CN1CCN(Cc2nn(C)c3[nH]c(-c4c(F)cccc4F)c(O)c(=O)c23)CC1 [Example 214, 6-(2,6-Difluorophenyl)-5-hydroxy-3-((4-isobutylpiperazin-1-yl)methyl)-1-methyl-1H-pyrazolo[3,4-b]pyridin-4(7H)-one] | 81.8 | 85 | > 150 | –
2 | O=c1c(O)c(-c2c(F)cccc2F)[nH]c2c1c(CO)nn2CC1CCOCC1 [Example 215, 6-(2,6-difluorophenyl)-5-hydroxy-3-(hydroxymethyl)-1-((tetrahydro-2H-pyran-4-yl)methyl)-1H-pyrazolo[3,4-b]pyridin-4(7H)-one] | 78.8 | 87.3 | 100 to 150 | –
3 | Cn1nc(CN2CCN(C3CC3)CC2)c2c(=O)c(O)c(-c3c(F)cccc3F)[nH]c21 [Example 216, 3-((4-Cyclopropylpiperazin-1-yl)methyl)-6-(2,6-difluorophenyl)-5-hydroxy-1-methyl-1H-pyrazolo[3,4-b]pyridin-4(7H)-one] | 73.4 | 88.3 | > 150 | –
4 | O=c1c(O)c(-c2c(F)cccc2F)[nH]c2c1c(CO)nn2CCC1CCOCC1 [Example 217, 6-(2,6-difluorophenyl)-5-hydroxy-3-(hydroxymethyl)-1-(2-(tetrahydro-2H-pyran-4-yl)ethyl)-1H-pyrazolo[3,4-b]pyridin-4(7H)-one] | 83.8 | 89.7 | 100 to 150 | –
5 | CCc1nn(CCS(C)(=O)=O)c2[nH]c(-c3c(F)cccc3F)c(O)c(=O)c12 [Example 218, 6-(2,6-Difluorophenyl)-3-ethyl-5-hydroxy-1-(2-(methylsulfonyl)ethyl)-1H-pyrazolo[3,4-b]pyridin-4(7H)-one] | 85.5 | 90.1 | 50 to 100 | –
6 | Cn1nc(CN2CCN(C3COC3)CC2)c2c(=O)c(O)c(-c3c(F)cccc3F)[nH]c21 [Example 219, 6-(2,6-Difluorophenyl)-5-hydroxy-1-methyl-3-((4-(oxetan-3-yl)piperazin-1-yl)methyl)-1H-pyrazolo[3,4-b]pyridin-4(7H)-one] | 81.7 | 89.2 | > 150 | –
7 | Cn1nc(CN2CCN(CC(F)(F)F)CC2)c2c(=O)c(O)c(-c3c(F)cccc3F)[nH]c21 [Example 220, 6-(2,6-Difluorophenyl)-5-hydroxy-1-methyl-3-((4-(2,2,2-trifluoroethyl)piperazin-1-yl)methyl)-1H-pyrazolo[3,4-b]pyridin-4(7H)-one] | – | – | > 150 | Percentage inhibition at 1.0 μM: 87.57%; Percentage inhibition at 10.0 μM: 100.00%
8 | Cn1nc(CN2CCN(CCF)CC2)c2c(=O)c(O)c(-c3c(F)cccc3F)[nH]c21 [Example 221, 6-(2,6-Difluorophenyl)-3-((4-(2-fluoroethyl)piperazin-1-yl)methyl)-5-hydroxy-1-methyl-1H-pyrazolo[3,4-b]pyridin-4(7H)-one] | 84 | 97.1 | > 150 | –
9 | CC(C)N1CCN(Cc2nn(C)c3[nH]c(-c4c(F)cccc4F)c(O)c(=O)c23)C[C@@H]1C [Example 222, (S)-6-(2,6-Difluorophenyl)-5-hydroxy-3-((4-isopropyl-3-methylpiperazin-1-yl)methyl)-1-methyl-1H-pyrazolo[3,4-b]pyridin-4(7H)-one] | 86.2 | 92.7 | > 150 | –
10 | CC(C)N1CCN(Cc2nn(C)c3[nH]c(-c4c(F)cccc4F)c(O)c(=O)c23)C[C@H]1C [Example 223, (R)-6-(2,6-Difluorophenyl)-5-hydroxy-3-((4-isopropyl-3-methylpiperazin-1-yl)methyl)-1-methyl-1H-pyrazolo[3,4-b]pyridin-4(7H)-one] | 89.7 | 96.6 | 100 to 150 | –
11 | Cn1nc(C(F)(F)F)c2c(=O)c(O)c(-c3ccc(O)cc3)[nH]c21 [Example 225, 5-hydroxy-6-(4-hydroxyphenyl)-1-methyl-3-(trifluoromethyl)-1,7-dihydro-4H-pyrazolo[3,4-b]pyridin-4-one] | 80.1 | 90.7 | > 150 | –
12 | CC(=O)Oc1c(-c2c(F)cccc2F)[nH]c2c(c(C)nn2C)c1=O [Example 226] | 22.9 | 66.9 | – | –
13 | Cc1nn(CCN2CCOCC2)c2[nH]c(-c3cccc(C(F)(F)F)c3F)c(O)c(=O)c12 [Example 239, 6-(2-Fluoro-3-(trifluoromethyl)phenyl)-5-hydroxy-3-methyl-1-(2-morpholinoethyl)-1H-pyrazolo[3,4-b]pyridin-4(7H)-one dihydrochloride] | – | – | – | Percentage inhibition at 1.0 μM (dihydrochloride): 84.59%; Percentage inhibition at 10.0 μM (dihydrochloride, 10 µM): 77.77%

Now from value to compound, other results behind:

Row | inhibition at 1 µM [%] | inhibition at 10 µM [%] | IC50 [nM] | Structure (SMILES) | further results
14 | 6.03 | 16 | – | Cc1c2oc(-c3ccccc3Cl)c(O)c(=O)c2nn1C [Example 227, 5-(2-chlorophenyl)-6-hydroxy-2,3-dimethylpyrano[3,2-c]pyrazol-7(2H)-one] | –
15 | 8.66 | 11 | – | Cc1c2oc(-c3ccccc3Cl)c(O)c(=O)c2nn1C(C)C [Example 228, 5-(2-Chlorophenyl)-6-hydroxy-3-methyl-2-(propan-2-yl)pyrano[3,2-c]pyrazol-7(2H)-one] | –
16 | 4.45 | 5.81 | – | CCn1nc2c(=O)c(O)c(-c3ccccc3Cl)oc2c1C [Example 229, 5-(2-Chlorophenyl)-2-ethyl-6-hydroxy-3-methylpyrano[3,2-c]pyrazol-7(2H)-one] | –
17 | 3.28 | 5.83 | – | Cc1nn(C)c2oc(-c3ccccc3Cl)c(O)c(=O)c12 [Example 230, 6-(2-chlorophenyl)-5-hydroxy-1,3-dimethylpyrano[2,3-c]pyrazol-4(1H)-one] | –
18 | 12.5 | 9.39 | – | Cc1nn(-c2ccc(F)cc2)c2oc(-c3ccccc3Cl)c(O)c(=O)c12 [Example 231, 6-(2-Chlorophenyl)-1-(4-fluorophenyl)-5-hydroxy-3-methylpyrano[2,3-c]pyrazol-4(1H)-one] | –
19 | 85.1 | 84.8 | 50 to 100 | Cc1nn(CCCO)c2[nH]c(-c3c(F)cccc3F)c(O)c(=O)c12 [Example 232, 6-(2,6-Difluorophenyl)-5-hydroxy-1-(3-hydroxypropyl)-3-methyl-1H-pyrazolo[3,4-b]pyridin-4(7H)-one] | –
20 | 32.8 | 69.7 | – | COc1c(-c2ccccc2Cl)[nH]c2c(c(C)nn2C)c1=O [Example 233, 6-(2-chlorophenyl)-5-methoxy-1,3-dimethyl-1H-pyrazolo[3,4-b]pyridin-4(7H)-one] | –
21 | 25.8 | 70.2 | – | CCn1nc(C)c2c(=O)c(OC)c(-c3c(F)cccc3F)[nH]c21 [Example 234] | –
22 | 72.9 | – | > 150 | CCn1nc(C)c2c(=O)c(O)c(-c3ccc(NS(C)(=O)=O)cc3F)[nH]c21 [Example 235, N-[4-(1-ethyl-5-hydroxy-3-methyl-4-oxo-4,7-dihydro-1H-pyrazolo[3,4-b]pyridin-6-yl)-3-fluorophenyl]methanesulfonamide] | –
23 | 84.8 | 87.7 | 50 to 100 | CCn1nc(C)c2c(=O)c(O)c(-c3c(F)cc(NS(C)(=O)=O)cc3F)[nH]c21 [Example 236, N-[4-(1-Ethyl-5-hydroxy-3-methyl-4-oxo-4,7-dihydro-1H-pyrazolo[3,4-b]pyridin-6-yl)-3,5-difluorophenyl]methanesulfonamide] | –
24 | 60.9 | 74.3 | > 150 | Cn1nc(C(F)(F)F)c2c(=O)c(O)c(-c3ccc(NS(C)(=O)=O)cc3F)[nH]c21 [Example 237, N-{3-Fluoro-4-[5-hydroxy-1-methyl-4-oxo-3-(trifluoromethyl)-4,7-dihydro-1H-pyrazolo[3,4-b]pyridin-6-yl]phenyl}methanesulfonamide] | –
25 | – | – | > 150 | CCc1nn(CCN2CCOCC2)c2[nH]c(-c3ccccc3Cl)c(O)c(=O)c12 [Example 238, 6-(2-Chlorophenyl)-3-ethyl-5-hydroxy-1-(2-morpholinoethyl)-1H-pyrazolo[3,4-b]pyridin-4(7H)-one hydrochloride] | Percentage inhibition at 1.0 μM (hydrochloride): 80.17%; Percentage inhibition at 10.0 μM (hydrochloride, 10 µM): 71.20%
26 | – | – | > 150 | Cc1nn(CCN2CCN(C)CC2)c2[nH]c(-c3ccccc3Cl)c(O)c(=O)c12 [Example 243, 6-(2-Chlorophenyl)-5-hydroxy-3-methyl-1-(2-(4-methylpiperazin-1-yl)ethyl)-1H-pyrazolo[3,4-b]pyridin-4(7H)-one fumarate] | –
